Assays:
[1] = test system: mouse myoblasts; test: Migration of mouse myoblasts transiently over-expressing MMPs; type: cell-based; settings: NAC treatment, n=4
Method: Myoblast migration and invasion were examined using a commercially available in vitro cell migration and invasion assay kit (Biocoat, Becton Dickinson, Franklin Lakes, N.J.) as described by Albini et al. (A rapid in vitro assay for quantitating the invasive potential of tumor cells Cancer Res 47:3239-3245, 1987). Myoblasts were grown to approximately 70% confluence, rinsed three times in serum-free DMEM, followed by incubation for 3 hours in 0.2% bovine serum albumin (BSA) in DMEM to eliminate the effects of serum. Cells were then trypsinized and collected by centrifugation. Cells were resuspended in serum-free DMEM at a density of 1×10^5 cells/ml, and 0.5 ml aliquots of cell suspension were added to the top chamber. […] Fibronectin subfragments of 45 KDa (Sigma), 120 kDa (Gibco), 63 kDa (Retronectin, Takara) and 70 KDa (Sigma) were used alone or in combination. The growth factor concentrations used were those which could produce maximal effects as examined in the present studies by extending from values reported by Bischoff (“Chemotaxis of skeletal muscle satellite cells” Devel. Dynamics 208:505-515, 1997). […] The number of cells per field was counted in 10 randomly selected fields and averaged for each condition. […]

[2] = test system: MMP-2; test: Gelatin zymography of human myoblasts, MMP-2; type: cell-based
Method: Gelatin zymography for assaying MMPs was carried out as previously described (Guerin and Holland “Synthesis and secretion of matrix-degrading metalloproteinases by human skeletal muscle satellite cells” Devel. Dynamics 202:91-99,1995) with minor modifications. Briefly, myoblasts were grown in 6 cm tissue culture plates to approximately 70% confluence, then rinsed three times with serumfree DMEM and incubated for 3 hours in DMEM containing 0.2% BSA to eliminate the effects of serum. Growth factors were added and cells were incubated for 24 hours. Culture medium was then collected, centrifuged to pellet detached cells, and concentrated ten-to twenty-fold using the Centricon-10 (Amicon, Beverly, Mass.) system. The protein concentration of the supernatants was determined using the Bio-Rad protein microassay system with BSA used as the standard. Samples were stored at −70° C. until use. For gelatin zymography, aliquots (10 μg as the total protein per sample) were electrophoresed at constant voltage on a 10% polyacrylamide gel containing 2 mg/ml gelatin. […] Proteinase activity was quantified by densitometric scanning of bands using a Bio-Rad Gel Doc 1000 video camera imaging system (Bio Rad, Hercules, Calif.). […]

Row | Molecule | migration capability relative to non-NAC treated cells ([1]; MMP-1 over-expressing myoblasts) [%] | migration capability relative to non-NAC treated cells ([1]; MMP-2 over-expressing myoblasts) [%] | MMP-2 activation [2]
1 | CC(=O)N[C@@H](CS)C(=O)O [NAC, N-acetyl cysteine, reference compound] | 35 | 22 | 
2 | human serum fibronectin |  |  | significant increase in MMP-2 activation

— patent publication US20010055590A1, “Method for enhancing myoblast migration and invasion in the context of gene therapy” (priority 1999, published 2001)
